Reference: ChEMBL document CHEMBL5338783, “Discovery of an Anti-TNF-α 9-mer Peptide from a T7 Phage Display Library for the Treatment of Inflammatory Bowel Disease” (J Med Chem, 2023)
The source made the active and inactive calls. Peptide text beside a SMILES is read from it.

Tests used:
Mus musculus [1] = test: Anti-colitis activity against DSS-induced acute colitis in C57BL/6 mouse model assessed as […] in IL-6 mRNA level at 0.5 to 1 mg/kg, ip daily for 7 days by RT-qPCR analysis; format: functional, organism-based; conditions: dose 0.5-1 mg/kg, time 7.0 day
Tumor necrosis factor = Tumor necrosis factor (Homo sapiens, UniProt P01375); test: Binding affinity to recombinant TNF-alpha (unknown origin) assessed as dissociation constant incubated for 10 mins by MST assay
Chain of Tumor necrosis factor (P01375 whole entry): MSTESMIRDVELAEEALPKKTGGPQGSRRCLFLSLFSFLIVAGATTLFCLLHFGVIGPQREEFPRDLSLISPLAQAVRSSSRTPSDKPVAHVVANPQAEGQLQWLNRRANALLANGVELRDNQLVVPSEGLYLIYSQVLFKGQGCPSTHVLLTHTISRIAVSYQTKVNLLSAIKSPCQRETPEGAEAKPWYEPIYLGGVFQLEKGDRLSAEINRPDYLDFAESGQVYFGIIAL

Mus musculus [2] = test: Anti-colitis activity against DSS-induced acute colitis in C57BL/6 mouse model assessed as protection of body weight loss at 0.5 to 1 mg/kg, ip daily for 7 days; format: functional, organism-based; conditions: dose 0.5-1 mg/kg, time 7.0 day
BMDM [3] = test: Antiinflammatory activity in mouse BMDM cells assessed as decrease in LPS-stimulated IL-1beta mRNA level incubated for 3 hrs by RT-qPCR analysis; format: functional, cell-based; conditions: dose 25-100 µM
[4] = target: T1, Tumor necrosis factor receptor superfamily member 1B (Homo sapiens) (UniProt P20333); test: Inhibition of TNF-alpha (unknown origin) binding to TNFR2 by SPR analysis
T1 sequence (whole entry): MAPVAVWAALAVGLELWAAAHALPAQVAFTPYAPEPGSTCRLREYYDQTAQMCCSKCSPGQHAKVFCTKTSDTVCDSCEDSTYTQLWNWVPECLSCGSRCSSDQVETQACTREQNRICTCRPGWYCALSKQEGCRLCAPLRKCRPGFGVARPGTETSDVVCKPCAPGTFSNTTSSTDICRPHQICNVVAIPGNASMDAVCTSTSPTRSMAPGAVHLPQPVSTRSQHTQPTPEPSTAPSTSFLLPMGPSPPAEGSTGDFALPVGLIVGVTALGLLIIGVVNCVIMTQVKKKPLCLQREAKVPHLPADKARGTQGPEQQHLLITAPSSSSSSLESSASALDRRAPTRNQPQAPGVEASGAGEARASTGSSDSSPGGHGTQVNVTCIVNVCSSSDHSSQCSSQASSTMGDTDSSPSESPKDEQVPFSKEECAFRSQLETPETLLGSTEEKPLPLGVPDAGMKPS

RAW264.7 [5] = test: Antiinflammatory activity in mouse RAW264.7 cells assessed as decrease in LPS-stimulated IL-1beta mRNA level incubated for 3 hrs by RT-qPCR analysis; format: functional, cell-based; conditions: dose 25-100 µM
Mus musculus [6] = test: Anti-colitis activity against DSS-induced acute colitis in C57BL/6 mouse model assessed as reversal of body weight loss at 0.5 to 1 mg/kg, ip daily for 11 days; format: functional, organism-based; conditions: dose 0.5-1 mg/kg, time 11.0 day
Mus musculus [7] = test: Antiinflammatory activity against DSS-induced acute colitis in C57BL/6 mouse model assessed as decrease in p38 phosphorylation in colon tissue administered intraperitoneally daily for 7 days by Western blot analysis; format: functional, organism-based; conditions: dose 0.5-1 mg/kg, route ip, time 7.0 day
BMDM [8] = test: Antiinflammatory activity in mouse BMDM cells assessed as decrease in LPS-stimulated IFN-alpha mRNA level incubated for 3 hrs by RT-qPCR analysis; format: functional, cell-based; conditions: dose 25-100 µM
Mus musculus [9] = test: Anti-colitis activity against DSS-induced acute colitis in C57BL/6 mouse model assessed as decrease in disease activity index at 0.5 to 1 mg/kg, ip daily for 11 days; format: functional, organism-based; conditions: dose 0.5-1 mg/kg, time 11.0 day
RAW264.7 [10] = test: Antiinflammatory activity in mouse RAW264.7 cells assessed as decrease in LPS-stimulated IFN-gamma protein expression incubated for 3 hrs by flow cytometry; format: functional, cell-based; conditions: dose 25-100 µM
[11] = Toxicity in DSS-induced acute colitis in C57BL/6 mouse model assessed as animal survival at 0.5 to 1 mg/kg, ip daily for 11 days; format: organism-based; conditions: in vivo, 264 h, dose 0.5-1 mg/kg, time 11 day
BMDM [12] = test: Antiinflammatory activity in mouse BMDM cells assessed as decrease in LPS-stimulated IL-6 mRNA level incubated for 3 hrs by RT-qPCR analysis; format: functional, cell-based; conditions: dose 25-100 µM
RAW264.7 [13] = test: Disruption of NF-kappaB/p65 nuclear import in LPS-stimulated mouse RAW264.7 cells preincubated for 30 mins followed by LPS stimulation measured after 3 hrs by immunofluorescence based microscopy; format: functional, cell-based
RAW264.7 [14] = test: Antiinflammatory activity in mouse RAW264.7 cells assessed as decrease in LPS-stimulated TNF-alpha mRNA level at 25 to 100 uM incubated for 3 hrs by RT-qPCR analysis; format: functional, cell-based; conditions: dose 25-100 µM
L929 = test: Cytotoxicity against mouse L929 cells upto 1000 uM; format: toxicity, cell-based; conditions: l929, 1000 µM
Mus musculus [15] = test: Anti-colitis activity against DSS-induced acute colitis in C57BL/6 mouse model assessed as reduction in colonic epithelial disruption at 0.5 to 1 mg/kg, ip daily for 11 days by H and E staining based analysis; format: functional, organism-based; conditions: dose 0.5-1 mg/kg, time 11.0 day
RAW264.7 [16] = test: Antiinflammatory activity in LPS-stimulated mouse RAW264.7 cells assessed as inhibition of p65 phosphorylation incubated for 3 hrs by Western blot analysis; format: functional, cell-based; conditions: dose 25-100 µM
Mus musculus [17] = test: Antiinflammatory activity against DSS-induced acute colitis in C57BL/6 mouse model assessed as decrease in IkappaBalpha phosphorylation in colon tissue administered intraperitoneally daily for 7 days by Western blot analysis; format: functional, organism-based; conditions: dose 0.5-1 mg/kg, route ip, time 7.0 day
Mus musculus [18] = test: Anti-colitis activity against DSS-induced acute colitis in C57BL/6 mouse model assessed as reduction in colon length at 0.5 to 1 mg/kg, ip daily for 11 days; format: functional, organism-based; conditions: dose 0.5-1 mg/kg, time 11.0 day
Mus musculus [19] = test: Antiinflammatory activity against DSS-induced acute colitis in C57BL/6 mouse model assessed as decrease in JNK1/2 phosphorylation in colon tissue administered intraperitoneally daily for 7 days by Western blot analysis; format: functional, organism-based; conditions: dose 0.5-1 mg/kg, route ip, time 7.0 day
RAW264.7 [20] = test: Antiinflammatory activity in LPS-stimulated mouse RAW264.7 cells assessed as inhibition of ERK1/2 phosphorylation incubated for 3 hrs by Western blot analysis; format: functional, cell-based; conditions: dose 25-100 µM
Mus musculus [21] = test: Anti-colitis activity against DSS-induced acute colitis in C57BL/6 mouse model assessed as […] in IL-1beta mRNA level at 0.5 to 1 mg/kg, ip daily for 7 days by RT-qPCR analysis; format: functional, organism-based; conditions: dose 0.5-1 mg/kg, time 7.0 day
Mus musculus [22] = test: Antiinflammatory activity against DSS-induced acute colitis in C57BL/6 mouse model assessed as decrease in p65 phosphorylation in colon tissue administered intraperitoneally daily for 7 days by Western blot analysis; format: functional, organism-based; conditions: dose 0.5-1 mg/kg, route ip, time 7.0 day

C[C@H](N)C(=O)N[C@@H](CS)C(=O)N[C@@H](Cc1cnc[nH]1)C(=O)N[C@@H](C)C(=O)N[C@@H](Cc1c[nH]c2ccccc12)C(=O)N[C@@H](C)C(=O)N1CCC[C@H]1C(=O)N[C@H](C(=O)N[C@@H](CCCNC(=N)N)C(=O)O)[C@@H](C)O (H-ACHAWAPTR-OH)
5.14 µM: Kd (Tumor necrosis factor)
Non-Toxic: Activity [11] | Activity (L929)
active: Activity (Mus musculus [1]) | Activity (Mus musculus [2]) | Activity (BMDM [3]) Dose-Dependent Effect | inhibition [4] | Activity (RAW264.7 [5]) | Activity (Mus musculus [6]) | Activity (Mus musculus [7]) Dose-Dependent Effect | Activity (BMDM [8]) Dose-Dependent Effect | Activity (Mus musculus [9]) | Activity (RAW264.7 [10]) Dose-Dependent Effect | Activity (BMDM [12]) Dose-Dependent Effect | Activity (RAW264.7 [13]) Dose-Dependent Effect | Activity (RAW264.7 [14]) Dose-Dependent Effect | Activity (Mus musculus [15]) | Activity (RAW264.7 [16]) Dose-Dependent Effect | Activity (Mus musculus [17]) Dose-Dependent Effect | Activity (Mus musculus [18]) | Activity (Mus musculus [19]) Dose-Dependent Effect | Activity (RAW264.7 [20]) Dose-Dependent Effect | Activity (Mus musculus [21]) | Activity (Mus musculus [22]) Dose-Dependent Effect
